Data from article PMC9354705, “Characterization of TR‐107, a novel chemical activator of the human mitochondrial protease ClpP” (Pharmacology Research & Perspectives, 2022).
“And” between values parts separate entries of the source, which are not always exact repeats. Identical values can stand only once. Like-named read-outs stand apart in the source and are kept apart here.

Legend:
[1] = test system: C3(1)‐Tag cells; assay: Cell viability assay of C3Tag cells; assay type: cell-based, murine; details: Mus musculus; 72 h, Hoechst stain, N = 2
[2] = target: purified recombinant human ClpP (Homo sapiens, UniProt Q16740); assay: In vitro ClpP activity assay (casein‐FITC degradation); assay type: biochemical; details: relative to DMSO, read-out: EC50 (nM) ClpP activation
Description: Measurement of in vitro activity of purified recombinant human ClpP was performed with a slight modification to the method previously described.[46] Briefly, ClpP activity was measured through the degradation of casein‐FITC (Sigma‐Aldrich, C0528) in the presence of indicated compounds. […] Enzyme and compounds were mixed and incubated in assay buffer for 30 min before adding casein‐FITC substrate. […] Linear slope of fluorescence signal was used to measure ClpP activity and normalized to DMSO control, expressed as RFU/h.

[3] = target: T1, recombinant human ClpP (Homo sapiens, UniProt Q16740); assay: Surface plasmon resonance binding to ClpP; details: steady state, one‐site Langmuir binding model, 25°C; read-out: Kd (SPR)
T1 construct: made in house
Description: For the surface plasmon resonance (SPR) experiments, recombinant human ClpP was purified as previously described.[46] SPR measurements were performed on a Biacore X100 instrument (Cytiva Life Sciences) at 25°C in buffer (25 mM sodium phosphate, pH 7.5, 200 mM KCl, 0.05% Tween‐20, and 0.004% DMSO). ClpP was immobilized onto flowcell two of a CM5 chip (Cytive Life Sciences) using the amine coupling wizard using Biacore X100 Control Software. A pulse of a mixture of NHS and EDC activated the CM5 chip surface. ClpP was diluted to 100 μg/ml in 10 mM sodium acetate, pH 4.5 immediately prior to use and injected over the activated surface for 180 s. The remaining activated sites were blocked with a pulse of ethanolamine. 12 000 RU of ClpP was captured using this procedure. Flowcell 1 was unmodified and served as a reference. For TR‐107 binding to ClpP, a concentration series of TR‐107 in DMSO was diluted into the buffer to achieve 0.004% final DMSO concentration in all samples. Three replicates were injected for each concentration. Data were blank subtracted and analysis was performed in Biacore X100 Evaluation Software (Cytiva Life Sciences). The steady‐state response was calculated 15 s before the end of injection with a window of 15 s. Data were fitted to a one‐site Langmuir binding model.

[4] = Pharmacokinetic analysis in ICR mice; assay type: in vivo, mouse; details: male, mouse, plasma, ICR mice
Description: Samples were placed in tubes containing heparin sodium and stored on ice until centrifuged. Blood samples were centrifuged at 6800g for 6 min at 2–8°C within 1 h following sample collection and stored at −80°C. Proteins from plasma sample aliquots (20 μl) were precipitated by the addition of MeOH (400 μl) containing an internal standard (tolbutamide,100 ng/ml), vortexed for 1 min, and centrifuged at 18 000g for 7 min. The supernatant (200 μl) was transferred to 96 well plates for analysis.
Analysis of samples was conducted as follows. […] The PK parameters including Area Under the Curve (AUC[0–∞]) elimination half‐life (t 1/2), maximal plasma concentration (C max), and oral bioavailability (F%) were analyzed by noncompartmental methods.

[5] = Protein binding to plasma proteins (equilibrium dialysis); assay type: in vitro ADME; details: mouse plasma, read-out: serum‐free fraction
Description: Protein‐binding studies were performed by Eurofins Panlabs, Inc. This assay utilizes equilibrium dialysis in a microplate format, as previously described.[47] Briefly, this analysis is used to determine the bound and unbound fraction of the drug and calculate the percentage of the test compound binding to murine plasma proteins.

[6] = test system: MDA‐MB‐231 or SUM159 cells; assay: Caspase‐3/7 activity assay and PARP cleavage; assay type: cell-based, human
Description: […]. The samples were collected in lysis buffer (50 mM HEPES [pH: 7.4], 5 mM CHAPS, and 5 mM DTT), and caspase activity was measured by monitoring fluorescence (ex/em: 360/460 nm) using a SpectraMax i3x (Molecular Devices).

[7] = test system: MDA‐MB‐231 or SUM159 cells; assay: Time‐course total cell count in MDA‐MB‐231 or SUM159 cells; assay type: cell-based, human; details: up to 72 h, both cell lines, vs vehicle control
Description: Total cell counting assays were performed by seeding MDA‐MB‐231 cells (WT and ClpP‐KO; 4000 cells/well) or SUM159 (WT and ClpP‐KO; 1000 cells/well) in a 96‐well plate (Perkin Elmer, 6005050) and allowed to adhere overnight. The growth medium was then aspirated and replaced with 100 μl of growth medium supplemented with the drug at concentrations indicated in the figure or figure legends. Cells treated with vehicle control (0.1% DMSO, Sigma‐Aldrich D2650) were used as a negative control in all experiments, and cells were incubated with drug‐containing media for 24, 48, or 72 h as indicated in figure legends. Media was then aspirated and replaced with 100 μl Dulbecco's phosphate‐buffered saline (DPBS Gibco, 14190‐144) containing 1 μg/ml Hoechst stain (ThermoFischer Scientific, H3570) and allowed to incubate at 37°C for 30 min. The total cell number was then quantified using the Celigo Imaging Cytometer (Nexcelom).

[8] = test system: MDA‐MB‐231 cells; assay: Mitochondrial respiration analysis (Seahorse XF); assay type: cell-based, human; details: 24 h
Description: Cellular oxygen consumption and extracellular acidification rates (OCR and ECAR, respectively) were measured using Seahorse XFe96 (Agilent). MDA‐MB‐231 cells were plated (15 000 cells/well) in Seahorse XF96 plates (Agilent, 102416‐100) and allowed to adhere overnight. Cells were then treated with 25 or 50 nM TR‐107 for 24 h. On the day of Seahorse XF analysis, the growth medium was replaced with an XF base medium (Agilent, 103575‐100) supplemented with appropriate concentrations of TR‐107. After measurement of basal OCR/ECAR, 1 μM Oligomycin, 1 μM FCCP, and 1 μM Rotenone/Antimycin A (Agilent, 103015‐100) were added at indicated time points. OCR/ECAR were measured every 6.5 min for 73 min.

T1 sequence (Q16740 57-277): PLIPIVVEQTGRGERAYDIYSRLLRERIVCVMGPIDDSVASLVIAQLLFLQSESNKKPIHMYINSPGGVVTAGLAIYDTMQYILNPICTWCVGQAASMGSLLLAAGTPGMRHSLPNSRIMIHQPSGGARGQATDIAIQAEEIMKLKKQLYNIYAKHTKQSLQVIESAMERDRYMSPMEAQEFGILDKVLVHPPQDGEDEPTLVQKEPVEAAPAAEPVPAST
Sequence of purified recombinant human ClpP (Q16740 57-277): as above

## N#Cc1cccc(CN2CCc3ncn(Cc4ccc(Cl)cc4)c(=O)c3C2)c1 [TR‐107]
[1]
  IC50: 22 nM
[2]
  EC50: 140 nM
[3]
  Kd: ~180 nM and 178 nM
[4]; po, 10 mg/kg orally, read-out: exposure (AUC)
  AUC: 2360 ng·h/mL
[4]; 10 mg/kg oral
  AUC(0-inf): 2360 ng·h/mL
[4]; 10 mg/kg oral, read-out: C max
  Cmax: 3.7 µM
[4]; 10 mg/kg oral, read-out: C max (mg/ml)
  Cmax: 0.00144 mg/mL
[4]; 10 mg/kg oral, read-out: T 1/2 (converted)
  half-life: 54 min
[5]
  fraction unbound: 0.1
[6]; 24 h, 10 μM ONC201, 150 nM TR‐57, 100 nM TR‐107, 100 nM staurosporine
  caspase‐3/7 activity: no increase
[6]; data not shown
  PARP cleavage: no increase
[7]
  concentrations inhibiting the increase in cell number: > 10 nM
[8]; ClpP‐KO MDA‐MB‐231, 25, 50 nM
  decline in oxygen consumption rate (OCR): not observed
[8]; MDA‐MB‐231, 25, 50 nM
  extracellular acidification (ECAR): dose‐dependent increase
[8]; WT MDA‐MB‐231, 25, 50 nM
  oxygen consumption rate (OCR): dose‐dependent decline
